Test results as given in PubChem BioAssay (NCI).
“And” between values parts separate entries of the source, which are not always exact repeats. Equal entries are not always repeated.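 Dose response: 5 concentrations. Exposure: 48 h. Format: 96-well plates. Endpoint: linear interpolation; highest concentration if not reached. The concentration for 50% growth inhibition is given as GI50. TGI is the concentration that stops growth completely.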

Experiments:
Assay in all cases: inhibition of tumour cell growth, NCI panel, 48 h
786-0 renal = tested on: 786-0 renal
A498 renal = tested on: A498 renal
A549 NSCLC = tested on: A549 NSCLC
ACHN renal = tested on: ACHN renal
CAKI-1 renal = tested on: CAKI-1 renal
CCRF-CEM leukemia = tested on: CCRF-CEM leukemia
COLO 205 colon = tested on: COLO 205 colon
DLD-1 colon = tested on: DLD-1 colon
DMS 114 small cell lung = tested on: DMS 114 small cell lung
DMS 273 small cell lung = tested on: DMS 273 small cell lung
EKVX NSCLC = tested on: EKVX NSCLC
HCC-2998 colon = tested on: HCC-2998 colon
HCT-116 colon = tested on: HCT-116 colon
HL-60(TB) leukemia = tested on: HL-60(TB) leukemia
HOP-18 NSCLC = tested on: HOP-18 NSCLC
HT29 colon = tested on: HT29 colon
IGROV1 ovarian = tested on: IGROV1 ovarian
K-562 leukemia = tested on: K-562 leukemia
KM12 colon = tested on: KM12 colon
KM20L2 colon = tested on: KM20L2 colon
LOX IMVI melanoma = tested on: LOX IMVI melanoma
LXFL 529 NSCLC = tested on: LXFL 529 NSCLC
M14 melanoma = tested on: M14 melanoma
M19-MEL melanoma = tested on: M19-MEL melanoma
MALME-3M melanoma = tested on: MALME-3M melanoma
MOLT-4 leukemia = tested on: MOLT-4 leukemia
NCI-H226 lung = tested on: NCI-H226 lung
NCI-H23 lung = tested on: NCI-H23 lung
NCI-H460 lung = tested on: NCI-H460 lung
NCI-H522 lung = tested on: NCI-H522 lung
OVCAR-3 ovarian = tested on: OVCAR-3 ovarian
OVCAR-4 ovarian = tested on: OVCAR-4 ovarian
OVCAR-5 ovarian = tested on: OVCAR-5 ovarian
OVCAR-8 ovarian = tested on: OVCAR-8 ovarian
RXF 393 renal = tested on: RXF 393 renal
RXF-631 renal = tested on: RXF-631 renal
SF-268 CNS = tested on: SF-268 CNS
SF-295 CNS = tested on: SF-295 CNS
SF-539 CNS = tested on: SF-539 CNS
SK-MEL-2 melanoma = tested on: SK-MEL-2 melanoma
SK-MEL-28 melanoma = tested on: SK-MEL-28 melanoma
SK-MEL-5 melanoma = tested on: SK-MEL-5 melanoma
SK-OV-3 ovarian = tested on: SK-OV-3 ovarian
SN12C renal = tested on: SN12C renal
SNB-19 CNS = tested on: SNB-19 CNS
SNB-75 CNS = tested on: SNB-75 CNS
SNB-78 CNS = tested on: SNB-78 CNS
SW-620 colon = tested on: SW-620 colon
TK-10 renal = tested on: TK-10 renal
UACC-257 melanoma = tested on: UACC-257 melanoma
UACC-62 melanoma = tested on: UACC-62 melanoma
XF 498 CNS = tested on: XF 498 CNS
HCT-15 colon = tested on: HCT-15 colon
HOP-62 NSCLC = tested on: HOP-62 NSCLC
HOP-92 NSCLC = tested on: HOP-92 NSCLC
RPMI-8226 leukemia = tested on: RPMI-8226 leukemia
U251 CNS = tested on: U251 CNS
UO-31 renal = tested on: UO-31 renal
SR leukemia = tested on: SR leukemia

SMILES: COC1OC(COC(C)=O)C(OC(C)=O)C(OC(C)=O)C1NC(=O)N(CCCl)N=O (centres undefined)
- TGI (786-0 renal): > 100 µM
- TGI (A498 renal): > 100 µM
- TGI (A549 NSCLC): > 100 µM
- TGI (ACHN renal): > 100 µM
- TGI (CAKI-1 renal): > 100 µM
- GI50 (CCRF-CEM leukemia): 15.2 µM and 90.3 µM
- TGI (CCRF-CEM leukemia): > 100 µM
- TGI (COLO 205 colon): > 100 µM
- TGI (DLD-1 colon): > 100 µM
- TGI (DMS 114 small cell lung): > 100 µM
- TGI (DMS 273 small cell lung): > 100 µM
- TGI (EKVX NSCLC): > 100 µM
- TGI (HCC-2998 colon): > 100 µM
- TGI (HCT-116 colon): > 100 µM
- TGI (HL-60(TB) leukemia): 74 µM and > 100 µM
- TGI (HOP-18 NSCLC): > 100 µM
- TGI (HT29 colon): > 100 µM
- TGI (IGROV1 ovarian): > 100 µM
- TGI (K-562 leukemia): > 100 µM
- TGI (KM12 colon): > 100 µM
- TGI (KM20L2 colon): > 100 µM
- TGI (LOX IMVI melanoma): > 100 µM
- TGI (LXFL 529 NSCLC): > 100 µM
- TGI (M14 melanoma): > 100 µM
- TGI (M19-MEL melanoma): > 100 µM
- TGI (MALME-3M melanoma): > 100 µM
- GI50 (MOLT-4 leukemia): 26.2 µM and > 100 µM
- TGI (MOLT-4 leukemia): > 100 µM
- TGI (NCI-H226 lung): > 100 µM
- TGI (NCI-H23 lung): > 100 µM
- TGI (NCI-H460 lung): > 100 µM
- TGI (NCI-H522 lung): > 100 µM
- TGI (OVCAR-3 ovarian): > 100 µM
- TGI (OVCAR-4 ovarian): > 100 µM
- TGI (OVCAR-5 ovarian): > 100 µM
- TGI (OVCAR-8 ovarian): > 100 µM
- TGI (RXF 393 renal): > 100 µM
- TGI (RXF-631 renal): > 100 µM
- TGI (SF-268 CNS): > 100 µM
- TGI (SF-295 CNS): > 100 µM
- GI50 (SF-539 CNS): > 100 µM and 24.7 µM
- TGI (SF-539 CNS): > 100 µM and 91.7 µM
- TGI (SK-MEL-2 melanoma): > 100 µM
- TGI (SK-MEL-28 melanoma): > 100 µM
- TGI (SK-MEL-5 melanoma): > 100 µM
- TGI (SK-OV-3 ovarian): > 100 µM
- TGI (SN12C renal): > 100 µM
- TGI (SNB-19 CNS): > 100 µM
- TGI (SNB-75 CNS): > 100 µM
- TGI (SNB-78 CNS): > 100 µM
- TGI (SW-620 colon): > 100 µM
- TGI (TK-10 renal): > 100 µM
- TGI (UACC-257 melanoma): > 100 µM
- TGI (UACC-62 melanoma): > 100 µM
- TGI (XF 498 CNS): > 100 µM

SMILES: CCOC(=O)C12CCCC1(O)N(NC(N)=O)C(C)=C2C(=O)OC (centres undefined)
- TGI (786-0 renal): > 100 µM
- TGI (A498 renal): > 100 µM
- TGI (A549 NSCLC): > 100 µM
- TGI (ACHN renal): > 100 µM
- TGI (CAKI-1 renal): > 100 µM
- TGI (CCRF-CEM leukemia): > 100 µM
- TGI (COLO 205 colon): > 100 µM
- TGI (DLD-1 colon): > 100 µM
- TGI (DMS 114 small cell lung): > 100 µM
- TGI (DMS 273 small cell lung): > 100 µM
- TGI (EKVX NSCLC): > 100 µM
- TGI (HCC-2998 colon): > 100 µM
- TGI (HCT-116 colon): > 100 µM
- TGI (HCT-15 colon): > 100 µM
- TGI (HL-60(TB) leukemia): > 100 µM
- TGI (HOP-18 NSCLC): > 100 µM
- TGI (HOP-62 NSCLC): > 100 µM
- TGI (HOP-92 NSCLC): > 100 µM
- TGI (HT29 colon): > 100 µM
- TGI (IGROV1 ovarian): > 100 µM
- TGI (K-562 leukemia): > 100 µM
- TGI (KM12 colon): > 100 µM
- TGI (KM20L2 colon): > 100 µM
- TGI (LOX IMVI melanoma): > 100 µM
- TGI (LXFL 529 NSCLC): > 100 µM
- TGI (M14 melanoma): > 100 µM
- TGI (M19-MEL melanoma): > 100 µM
- TGI (MALME-3M melanoma): > 100 µM
- TGI (MOLT-4 leukemia): > 100 µM
- TGI (NCI-H226 lung): > 100 µM
- TGI (NCI-H23 lung): > 100 µM
- TGI (NCI-H460 lung): > 100 µM
- TGI (NCI-H522 lung): > 100 µM
- TGI (OVCAR-3 ovarian): > 100 µM
- TGI (OVCAR-4 ovarian): > 100 µM
- TGI (OVCAR-5 ovarian): > 100 µM
- TGI (OVCAR-8 ovarian): > 100 µM
- TGI (RPMI-8226 leukemia): > 100 µM
- TGI (RXF-631 renal): > 100 µM
- TGI (SF-268 CNS): > 100 µM
- TGI (SF-295 CNS): > 100 µM
- TGI (SF-539 CNS): > 100 µM
- TGI (SK-MEL-2 melanoma): > 100 µM
- TGI (SK-MEL-28 melanoma): > 100 µM
- TGI (SK-OV-3 ovarian): > 100 µM
- TGI (SN12C renal): > 100 µM
- TGI (SNB-19 CNS): > 100 µM
- TGI (SNB-78 CNS): > 100 µM
- TGI (SW-620 colon): > 100 µM
- TGI (TK-10 renal): > 100 µM
- TGI (U251 CNS): > 100 µM
- TGI (UACC-257 melanoma): > 100 µM
- TGI (UACC-62 melanoma): > 100 µM
- TGI (UO-31 renal): > 100 µM
- TGI (XF 498 CNS): > 100 µM

SMILES: CNc1ccccc1-c1nc2ccccc2c(=O)o1
- TGI (A549 NSCLC): > 100 µM
- TGI (ACHN renal): > 100 µM
- TGI (CAKI-1 renal): > 100 µM
- TGI (CCRF-CEM leukemia): > 100 µM
- TGI (COLO 205 colon): > 100 µM
- TGI (DLD-1 colon): > 100 µM
- TGI (DMS 114 small cell lung): > 100 µM
- TGI (DMS 273 small cell lung): > 100 µM
- TGI (EKVX NSCLC): > 100 µM
- TGI (HCC-2998 colon): > 100 µM
- TGI (HCT-116 colon): > 100 µM
- TGI (HCT-15 colon): > 100 µM
- TGI (HL-60(TB) leukemia): > 100 µM
- TGI (HOP-18 NSCLC): > 100 µM
- TGI (IGROV1 ovarian): > 100 µM
- TGI (K-562 leukemia): > 100 µM
- TGI (KM12 colon): > 100 µM
- TGI (KM20L2 colon): > 100 µM
- TGI (LOX IMVI melanoma): > 100 µM
- TGI (LXFL 529 NSCLC): > 100 µM
- TGI (M14 melanoma): > 100 µM
- TGI (M19-MEL melanoma): > 100 µM
- TGI (MALME-3M melanoma): > 100 µM
- TGI (MOLT-4 leukemia): > 100 µM
- TGI (NCI-H226 lung): > 100 µM
- TGI (NCI-H460 lung): > 100 µM
- TGI (OVCAR-4 ovarian): > 100 µM
- TGI (OVCAR-5 ovarian): > 100 µM
- TGI (OVCAR-8 ovarian): > 100 µM
- TGI (RPMI-8226 leukemia): > 100 µM
- TGI (RXF-631 renal): > 100 µM
- TGI (SF-268 CNS): > 100 µM
- TGI (SF-295 CNS): > 100 µM
- TGI (SF-539 CNS): > 100 µM
- TGI (SK-MEL-2 melanoma): > 100 µM
- TGI (SK-MEL-28 melanoma): > 100 µM
- TGI (SK-MEL-5 melanoma): > 100 µM
- TGI (SK-OV-3 ovarian): > 100 µM
- TGI (SN12C renal): > 100 µM
- TGI (SNB-19 CNS): > 100 µM
- TGI (SNB-75 CNS): 97.6 µM
- TGI (SNB-78 CNS): > 100 µM
- TGI (SR leukemia): > 100 µM
- TGI (SW-620 colon): > 100 µM
- TGI (TK-10 renal): > 100 µM
- TGI (U251 CNS): > 100 µM
- TGI (UACC-257 melanoma): > 100 µM
- TGI (UO-31 renal): > 100 µM
- TGI (XF 498 CNS): > 100 µM
